Peptide text beside a SMILES is read from it. * marks the point of attachment. Cbz = O=C(OCc1ccccc1)*
What was measured:
P-eEF2 in A549 cells = assay: eEF2 phosphorylation in A549 cells (western blot); type: cell-based, human; details: for phosphorylation of eEF2: 16 h, 2DG 10 mM, rapamycin 100 nM, AZD8055 1 μM, MG132 10 μM, Fig. 2A
Method: (§1) After treatment, cells were lysed in ice-cold lysis buffer containing 1% (v/v) Triton X-100 (215680010, Acros Organics), 50 mM Tris (T6066-1KG, Sigma-Aldrich)–HCl (258148-2.5 L, Sigma-Aldrich) pH 7.4, 50 mM NaCl (BP358-212, Fisher Scientific), 0.2 mM EDTA (BP120-500, Fisher Scientific), 0.2 mM EGTA (E1102, Melford), 50 mM β-glycerophosphate (G9422, Sigma-Aldrich), 1 mM Na3VO4 (S6508, Sigma-Aldrich), 15 mM β-mercaptoethanol (125472500, Acros Organics) and 1 × protease inhibitor cocktail (5056489001, Roche). Lysates were spun at 16,000 × g for 10 min at 4 °C; the supernatants were kept and total protein concentration was quantified by Bradford assay following the manufacturer's instructions.
(§2) These procedures were performed as described previously.
Cells were then treated with 10 mM 2-deoxyglucose (2DG), rapamycin (100 nM), AZD8055 (1 μM) or MG132 (10 μM) for 16 h. Cells were then lysed and samples containing equal amounts of protein were analysed by western blot using the indicated antibodies. Values given below each lane show quantitation of the signal for LC3II, corrected for the actin signal from multiple experiments as in (A) expressed as LC3II normalized to actin, mean ± SEM (control cells without treatment = 1; n = 3). (B) A549 cells were cultured as in (A) to induce eEF2K knockdown. A549 cells were transiently transfected with the GST-BHMT construct and maintained in full media in the presence or absence of AZD8055 (1 μM) for 16 h, in the presence of leupeptin and E64d. GST-BHMT was precipitated with glutathione agarose from the whole cell extracts (bottom panel). Values given below show the quantitation of data from multiple experiments as in (B) expressed as the level of BHMT fragment normalized to the control without IPTG, mean ± SEM (control cells without treatment = 1; n = 3). Values given below each lane show quantitation of the signal for P-eEF2, corrected for the eEF2 signal from multiple experiments as in (B) expressed as P-eEF2 normalized to eEF2, mean ± SEM (control cells without treatment = 1; n = 3). (C) Cells were treated as described in Supplemental Fig. S3, visualized by confocal microscopy and the rate of autophagosome–lysosome fusion was measured according to green/red fluorescence ratio which reflect the percentage of unfused LC3. Scale bar = 20 μm. (D) Data quantification of C, data are presented as means ± SEM. (n = 5) ***P < 0.001, obtained by two-way ANOVA (Dunnett's test). (E) Untransfected A549 cells were treated with AZD8055 and BafA1 as described in A, cell lysates were collected at T0, 1 and 3 h for immunoblotting analysis. Values given below each lane show quantitation of the signal for LC3II, corrected for the LC3I signal from multiple experiments as in (E) expressed as LC3II normalized to LC3I, mean ± SEM (control cells without treatment = 1; n = 3).

P-eEF2 in WT MEFs = assay: eEF2 phosphorylation in wild-type MEFs (western blot); type: cell-based, mouse; details: MK2206 5 μM or 2DG 10 mM, 24 h, Fig. 3A
Method: as §1, with “instructions. […]” for “instructions.”
Fig. 3 Role of eEF2K in autophagy in mouse embryonic fibroblasts (MEFs). […] Cells were then lysed and samples containing equal amounts of protein were analysed by western blot using the indicated antibodies. (B) Quantitation of data from multiple experiments as in (A) expressed as LC3II normalized to actin, mean ± SEM (control cells without treatment = 1; n = 3). […] Cells were then lysed and samples containing equal amounts of protein were analysed by western blot using the indicated antibodies. (D) Quantitation of data from multiple experiments as in (C) expressed as LC3II normalized to actin, mean ± SEM (control cells without treatment = 1; n = 3).

LC3II in MEFs = assay: LC3 modification in MEFs (western blot); type: cell-based, mouse; details: 24 h; for ratio of the two forms of LC3: WT MEFs, MK2206 5 μM or 2DG 10 mM, Fig. 3A
Method: as §1, §2
Fig. 3 Role of eEF2K in autophagy in mouse embryonic fibroblasts (MEFs). Wildtype (WT) and eEF2K^−/− (KO) MEFs were treated, where indicated, with MK2206 (MK) (5 μM) or 10 mM 2-deoxyglucose (2DG) or in medium lacking glucose (− Glc) for 24 h. Cells were then lysed and samples containing equal amounts of protein were analysed by western blot using the indicated antibodies. (B) Quantitation of data from multiple experiments as in (A) expressed as LC3II normalized to actin, mean ± SEM (control cells without treatment = 1; n = 3). (C) Wild-type (WT) and eEF2K^−/− (KO) MEFs were treated, where indicated, with rapamycin (50 nM) or AZD8055 (0.5 μM) and/or chloroquine (10 μM) for 24 h. Cells were then lysed and samples containing equal amounts of protein were analysed by western blot using the indicated antibodies. (D) Quantitation of data from multiple experiments as in (C) expressed as LC3II normalized to actin, mean ± SEM (control cells without treatment = 1; n = 3).

P-eEF2 in HCT116 cells = assay: eEF2 phosphorylation in HCT116 cells (western blot); type: cell-based, human; details: 24 h, CHX 5 μg/mL or Harringtonine 2 μg/mL, Fig. 1C
Method: as §1, §2
(§3) Fig. 1 eEF2K helps cells withstand glucose starvation. […] Cells were then lysed and samples containing equal amounts of protein were analysed by western blot using the indicated antibodies. Values given below each lane show quantitation of the signal for P-eEF2, corrected for the eEF2 signal from multiple experiments as in (A) expressed as P-eEF2 normalized to eEF2, mean ± SEM (control cells without treatment = 1; n = 3). […] Cells were lysed and caspase 3/7 activity was determined. […] Cell death was measured using CellTox Green® assay. […]

HCT116 cells = assay: cell death markers in HCT116 cells (PARP cleavage, caspase 3/7 activity); type: cell-based, human; details: CHX 5 μg/mL or Harringtonine 2 μg/mL, Fig. 1B, C
Method: (§4) Caspase 3/7 assays (G8090, Promega) were performed according to the manufacturer's instructions. Briefly, 10,000 cells/well were plated overnight in a 96-well plate. Cells were treated as described in the figure legends for the indicated time period. To measure caspase 3/7 activity, 50 μL of caspase Glo 3/7 reagent was added to each well for 2 h with constant shaking at room temperature. Luminescence was measured using a BMG Labtech FLUOstar Optimi plate reader. Cytotoxicity was evaluated by CellTox Green® cytotoxicity assay (Promega). Briefly, 10,000 cells/well were plated overnight in a 96-well plate. Cells were treated as described in the figure legends for the indicated time period. Fluorescence was measured at 485–500 nmEx/520–530 nmEm using a BMG Labtech FLUOstar Optimi plate reader.
as §3

A549 cells = assay: cell death of A549 cells (CellTox Green assay); type: cell-based, human; details: CHX 5 μg/mL
Method: as §4, §3

[1] = test system: eEF2K levels in A549 cells; assay: eEF2K protein levels in A549 cells (western blot); type: cell-based, human; details: CHX 5 μg/mL, 24 h, Fig. 1E
Method: as §1, §2, §3

[2] = test system: mTORC1 signalling in HCT116 cells; assay: mTORC1 signalling in HCT116 cells (western blot); type: cell-based, human; details: 24 h, Harringtonine 2 μg/mL, Fig. 1C
Method: as §1, §2, §3

LC3II in A549 cells = assay: LC3 modification in A549 cells (western blot); type: cell-based, human; details: A549 with or without eEF2K knockdown; chloroquine 10 μM; 16 h; Fig. S1
Method: as §1, §2
Cells were then treated with 10 mM 2-deoxyglucose (2DG), rapamycin (100 nM), AZD8055 (1 μM) or MG132 (10 μM) for 16 h. Cells were then lysed and samples containing equal amounts of protein were analysed by western blot using the indicated antibodies. Values given below each lane show quantitation of the signal for LC3II, corrected for the actin signal from multiple experiments as in (A) expressed as LC3II normalized to actin, mean ± SEM (control cells without treatment = 1; n = 3). (B) A549 cells were cultured as in (A) to induce eEF2K knockdown. […] (D) Data quantification of C, data are presented as means ± SEM. […]

[3] = test system: GST-BHMT cleavage (autophagic flux) in A549 cells; assay: GST-BHMT cleavage assay in A549 cells; type: cell-based, human; details: chloroquine, data not shown

**Q.** For `O=CC[C@@H](O)[C@H](O)[C@H](O)CO` [2-DG, 2-deoxyglucose], which “phosphorylation of eEF2” value (P-eEF2 in A549 cells) is on record?
**A.** induced the phosphorylation of eEF2

**Q.** And the “level of phosphorylation of eEF2” value (P-eEF2 in WT MEFs)?
**A.** increased the level of phosphorylation of eEF2

**Q.** And the “ratio of the two forms of LC3” value (LC3II in MEFs)?
**A.** shift in the ratio of the two forms of LC3 from the upper (LC3I) to the lower band

**Q.** Which “effect on eEF2 phosphorylation (p-eEF2)” value (P-eEF2 in HCT116 cells) does the source give for `C[C@@H]1C[C@@H]([C@H](O)CC2CC(=O)NC(=O)C2)C(=O)[C@@H](C)C1` [CHX, cycloheximide] here?
**A.** modest decrease

**Q.** What about the “cell survival in cells starved of glucose and treated with eEF2K inhibitor JAN-849” value (HCT116 cells) of the same compound?
**A.** restored cell survival

**Q.** What about the “effect on cell survival under control conditions” value (A549 cells; A549) of the same compound?
**A.** adverse effect

**Q.** And the “death induced by glucose starvation” value (A549 cells; A549 with eEF2K knockdown, 48 h, Fig. 1D)?
**A.** partially rescued

**Q.** What about the eEF2 phosphorylation (P-eEF2 in A549 cells; CHX 5 μg/mL, 24 h, Fig. 1E) of the same compound?
**A.** decrease in eEF2 phosphorylation

**Q.** And the “levels of eEF2K” value [1]?
**A.** decreased the levels of eEF2K

**Q.** With `COC(=O)C[C@](O)(CCC(C)(C)O)C(=O)O[C@@H]1C(OC)=C[C@]23CCCN2CCc2cc4c(cc2[C@H]13)OCO4` [Harringtonine] as the compound, how does the “effect on eEF2 phosphorylation (p-eEF2)” value (P-eEF2 in HCT116 cells) read?
**A.** no effect

**Q.** What about the “cell survival in cells starved of glucose and treated with eEF2K inhibitor JAN-849” value (HCT116 cells) of the same compound?
**A.** restored cell survival

**Q.** What about the “effect on mTORC1 signalling” value [2] of the same compound?
**A.** very little

**Q.** How did the “phosphorylation of eEF2” value (P-eEF2 in A549 cells) turn out when `CC(C)C[C@@H](C=O)NC(=O)[C@H](CC(C)C)NC(=O)[C@H](CC(C)C)NC(=O)OCc1ccccc1` [MG132] (Cbz-Leu-Leu-Leu-aldehyde) was run?
**A.** induced the phosphorylation of eEF2

**Q.** How did the “level of phosphorylation of eEF2” value (P-eEF2 in WT MEFs) turn out when `NC1(c2ccc(-c3nc4ccn5c(=O)[nH]nc5c4cc3-c3ccccc3)cc2)CCC1` [MK2206] was run?
**A.** increased the level of phosphorylation of eEF2

**Q.** What about the “ratio of the two forms of LC3” value (LC3II in MEFs) of the same compound?
**A.** shift in the ratio of the two forms of LC3 from the upper (LC3I) to the lower band

**Q.** `CCN(CC)CCCC(C)Nc1ccnc2cc(Cl)ccc12` (stereo not drawn) [chloroquine] was tested. Which “modified LC3” value (LC3II in A549 cells) did it give?
**A.** increased modified LC3

**Q.** And the “cleavage of GST-BHMT” value [3]?
**A.** completely blocked

**Q.** And the “levels of modified LC3-II” value (LC3II in MEFs; MEFs treated with rapamycin (50 nM) or AZD8055 (0.5 μM), chloroquine 10 μM, Fig. 3C)?
**A.** increased the levels of modified LC3-II
